Molecules are shown by their SMILES. Where a SMILES comes first, the peptide text is derived from it. Bridges are numbered along the chain shown (N, C = ends). [ ]: non-standard residue; d: D form. PEG12 = NCCOCCOCCOCCOCCOCCOCCOCCOCCOCCOCCOCCOCCC(=O)O; Phe(3-OMe) = COc1cccc(C[C@H](N)C(=O)O)c1; Phe(4-F) = N[C@@H](Cc1ccc(F)cc1)C(=O)O; NMeY = CN[C@@H](Cc1ccc(O)cc1)C(=O)O; NMeF = CN[C@@H](Cc1ccccc1)C(=O)O; Abu = CC[C@H](N)C(=O)O

A word on the Kd: it is the equilibrium constant for the complex coming apart.

Chain of transferrin receptor (hTfR) (P02786 whole entry): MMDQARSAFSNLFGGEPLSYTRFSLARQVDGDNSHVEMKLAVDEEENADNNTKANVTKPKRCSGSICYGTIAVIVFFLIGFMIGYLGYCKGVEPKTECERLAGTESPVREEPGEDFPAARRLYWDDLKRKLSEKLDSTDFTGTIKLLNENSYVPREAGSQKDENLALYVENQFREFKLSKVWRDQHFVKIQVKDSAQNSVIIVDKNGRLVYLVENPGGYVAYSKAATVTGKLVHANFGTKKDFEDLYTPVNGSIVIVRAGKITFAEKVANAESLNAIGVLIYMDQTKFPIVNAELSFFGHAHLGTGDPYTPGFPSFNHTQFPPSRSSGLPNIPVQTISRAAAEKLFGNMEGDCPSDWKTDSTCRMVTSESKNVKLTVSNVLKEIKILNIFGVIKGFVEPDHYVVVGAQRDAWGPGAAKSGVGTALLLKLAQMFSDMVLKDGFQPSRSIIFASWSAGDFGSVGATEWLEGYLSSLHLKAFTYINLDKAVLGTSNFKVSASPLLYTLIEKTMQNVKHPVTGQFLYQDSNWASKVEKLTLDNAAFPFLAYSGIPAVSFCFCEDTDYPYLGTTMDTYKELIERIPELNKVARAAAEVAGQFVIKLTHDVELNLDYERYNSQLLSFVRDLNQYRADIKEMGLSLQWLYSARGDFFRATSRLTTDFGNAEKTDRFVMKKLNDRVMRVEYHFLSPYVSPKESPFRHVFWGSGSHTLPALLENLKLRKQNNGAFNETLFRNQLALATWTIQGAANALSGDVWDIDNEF

The target of the test is transferrin receptor (hTfR) (Homo sapiens, UniProt P02786). The experiment in a line: Intermolecular interaction evaluation test between transferrin receptor (hTfR) and peptide by surface plasmon resonance (SPR). The test is classed as binding. To be noted: SPR; hTfR No. 894 variants with PEG12c linker (Table 2); read-out: KD. How it is done:
For each of the various synthesized peptides, the intermolecular interaction of the peptide with the transferrin receptor (hTfR) was tested by surface plasmon resonance (SPR) according to the following method. The specific test method is as follows.
An NTA sensor chip (Global Life Sciences Technologies Japan) was inserted in a Biacore T200 (Global Life Sciences Technologies Japan) and a prime operation was performed 3 times with a running buffer: 10 mM HEPES pH 8.0 (Nacalai Tesque), 150 mM NaCl (Nacalai Tesque), 0.05% Tween 20 (Nacalai Tesque), 0.1% BSA (Sigma-Aldrich), 1.0% DMSO (FUJIFILM Wako Pure Chemical) to create an Equilibration state at a flow rate of 30 µL/min. After reacting with 350 mM EDTA solution for 60 seconds at a flow rate of 10 µL/min then reacting with 0.5 mM NiCl2 solution (Kishida Chemical) for 60 seconds at a flow rate of 10 µL/min, the NTA sensor chip was washed with 3 mM EDTA solution (Nacalai Tesque) for 60 seconds at a flow rate of 10 µL/min. After mixing 50 µL each of 60 mM EDC solution (Global Life Sciences Technologies Japan) and 650 mM NHS solution (Global Life Sciences Technologies Japan), the mixture was reacted for 420 seconds at a flow rate of 10 µL/min. By diluting with the running buffer, 150 µL of 3.2 µM hTfR solution was prepared and used for reaction for 600 seconds at a flow rate of 10 µL/min, thereby immobilizing hTfR on the NTA sensor chip. After immobilization, capping was performed by reacting with 1.0 M ethanolamine aqueous solution (Global Life Sciences Technologies Japan) for 420 seconds at a flow rate of 10 µL/min. A peptide dissolution liquid prepared to 10 mM in the DMSO solution was diluted with the running buffer to a final concentration of 10 µM so as to become the peptide dissolution liquid, then peptide solutions of 100 nM, 50 nM, 25 nM, 10 nM and 5 nM were prepared. Kinetics of the peptide to hTfR was acquired by SPR measurement using the above-mentioned samples. Single-cycle kinetics was used as a kinetic evaluation model and curve fitting was performed using Biacore T200 Evaluation Software Version 3.0 (Global Life Sciences Technologies Japan). An obtained sensorgram was subjected to curve fitting using the least-squares method, and the binding of the peptide to hTfR was evaluated by obtaining KD values. […] A chemical structure of hTfR No. 894 is as follows.
The variant peptides were synthesized according to Example 1 unless otherwise stated in Example 9 or 10. The linker-added peptides were synthesized according to Example 1, except that Fmoc-NH-SAL-PEG resin (Watanabe Chemical Industries) was used as a resin for the peptide synthesis when the linker was PEG. The peptide, to which a peptide, a fatty acid, PEG, or a conjugate thereof is added as a linker, was also synthesized according to Example 1, unless otherwise stated in Example 9 or 10.
With `CC[C@@H]1NC(=O)CSC[C@@H](C(=O)NCCOCCOCCOCCOCCOCCOCCOCCOCCOCCOCCOCCOCCC(N)=O)NC(=O)[C@H](Cc2ccc(O)cc2)N(C)C(=O)[C@H](Cc2ccc(O)cc2)NC(=O)[C@H](CCCNC(=N)N)NC(=O)[C@H](CCCNC(=N)N)NC(=O)[C@H]([C@@H](C)CC)NC(=O)[C@H]([C@@H](C)CC)NC(=O)[C@H](Cc2ccc(O)cc2)NC(=O)[C@H](Cc2ccc(O)cc2)NC(=O)[C@H](CC(N)=O)NC(=O)[C@H](Cc2c[nH]c3ccccc23)NC(=O)[C@H](C(C)C)NC(=O)[C@H](Cc2ccccc2)N(C)C(=O)[C@H](C(C)C)NC1=O` [compound 111] ({CH2CO}-[Abu]V[NMeF]VWNYYIIRRY[NMeY]C[PEG12]-NH2; thioether N-15), the Kd lay within 1 to 100 nM. Consider `CC[C@H](C)[C@@H]1NC(=O)[C@H](Cc2ccc(O)cc2)NC(=O)[C@H](Cc2ccc(O)cc2)NC(=O)[C@H](CC(N)=O)NC(=O)[C@H](Cc2c[nH]c3ccccc23)NC(=O)[C@H](C(C)C)NC(=O)[C@H](Cc2ccccc2)N(C)C(=O)[C@H](C(C)C)NC(=O)[C@H](C)NC(=O)CSC[C@@H](C(=O)NCCOCCOCCOCCOCCOCCOCCOCCOCCOCCOCCOCCOCCC(N)=O)NC(=O)[C@H](Cc2ccc(O)cc2)N(C)C(=O)[C@H](Cc2ccc(O)cc2)NC(=O)[C@H](CCCNC(=N)N)NC(=O)[C@H](CCCNC(=N)N)N(C)C(=O)[C@H]([C@@H](C)CC)NC1=O` [compound 112], for which the Kd lay in the range of 1 to 100 nM. With `CC[C@H](C)[C@@H]1NC(=O)[C@H](Cc2ccc(O)cc2)NC(=O)[C@H](Cc2ccc(O)cc2)NC(=O)[C@H](CC(N)=O)NC(=O)[C@H](Cc2cccc(OC)c2)NC(=O)[C@H](C(C)C)NC(=O)[C@H](Cc2ccccc2)N(C)C(=O)[C@H](C(C)C)NC(=O)[C@H](C)NC(=O)CSC[C@@H](C(=O)NCCOCCOCCOCCOCCOCCOCCOCCOCCOCCOCCOCCOCCC(N)=O)NC(=O)[C@H](Cc2ccc(O)cc2)N(C)C(=O)[C@H](Cc2ccc(O)cc2)NC(=O)[C@H](CCCNC(=N)N)NC(=O)[C@H](CCCNC(=N)N)NC(=O)[C@H]([C@@H](C)CC)NC1=O` [compound 113] ({CH2CO}-AV[NMeF]V[Phe(3-OMe)]NYYIIRRY[NMeY]C[PEG12]-NH2; thioether N-15), the Kd is less than 1 nM. In the case of `CC[C@H](C)[C@@H]1NC(=O)[C@H](Cc2ccc(O)cc2)NC(=O)[C@H](Cc2ccc(O)cc2)NC(=O)[C@H](CC(N)=O)NC(=O)[C@H](Cc2c[nH]c3ccccc23)NC(=O)[C@H](C(C)C)NC(=O)[C@H](Cc2ccccc2)N(C)C(=O)[C@H](C(C)C)NC(=O)[C@H](C)NC(=O)CSC[C@@H](C(=O)NCCOCCOCCOCCOCCOCCOCCOCCOCCOCCOCCOCCOCCC(N)=O)NC(=O)[C@H](Cc2ccc(O)cc2)N(C)C(=O)[C@H](Cc2ccc(O)cc2)NC(=O)[C@H](CCCNC(=N)N)NC(=O)[C@H](CCCNC(=N)N)NC(=O)[C@H](Cc2ccc(O)cc2)NC1=O` [compound 115] ({CH2CO}-AV[NMeF]VWNYYIYRRY[NMeY]C[PEG12]-NH2; thioether N-15), the Kd is 1 to 100 nM. Take `CC[C@H](C)[C@@H]1NC(=O)[C@H](Cc2ccc(O)cc2)NC(=O)[C@H](Cc2ccc(O)cc2)NC(=O)[C@H](CC(N)=O)NC(=O)[C@H](Cc2c[nH]c3ccccc23)NC(=O)[C@H](C(C)C)NC(=O)[C@H](Cc2ccccc2)N(C)C(=O)[C@H](C(C)C)NC(=O)[C@H](C)NC(=O)CSC[C@@H](C(=O)NCCOCCOCCOCCOCCOCCOCCOCCOCCOCCOCCOCCOCCC(N)=O)NC(=O)[C@H](Cc2ccc(O)cc2)N(C)C(=O)[C@H](Cc2ccc(O)cc2)NC(=O)[C@@H](CCCNC(=N)N)NC(=O)[C@H](CCCNC(=N)N)NC(=O)[C@H]([C@@H](C)CC)NC1=O` [compound 116]: the Kd fell in the range of 1 to 100 nM. In the case of `CC[C@H](C)[C@@H]1NC(=O)[C@H](Cc2ccc(O)cc2)NC(=O)[C@H](Cc2ccc(O)cc2)NC(=O)[C@H](CC(N)=O)NC(=O)[C@H](Cc2c[nH]c3ccccc23)NC(=O)[C@H](C(C)C)NC(=O)[C@H](Cc2ccccc2)N(C)C(=O)[C@H](C(C)C)NC(=O)[C@H](C)NC(=O)CSC[C@@H](C(=O)NCCOCCOCCOCCOCCOCCOCCOCCOCCOCCOCCOCCOCCC(N)=O)NC(=O)[C@H](C)NC(=O)[C@H](Cc2ccc(O)cc2)NC(=O)[C@H](CCCNC(=N)N)NC(=O)[C@H](CCCNC(=N)N)NC(=O)[C@H]([C@@H](C)CC)NC1=O` [compound 117] ({CH2CO}-AV[NMeF]VWNYYIIRRYAC[PEG12]-NH2; thioether N-15), the dissociation constant Kd was in the range of 1 to 100 nM. Consider `CC[C@H](C)[C@@H]1NC(=O)[C@H](Cc2ccc(O)cc2)NC(=O)[C@H](Cc2ccc(O)cc2)NC(=O)[C@H](CC(N)=O)NC(=O)[C@H](Cc2ccc(OC)cc2)NC(=O)[C@H](C(C)C)NC(=O)[C@H](Cc2ccccc2)N(C)C(=O)[C@H](C(C)C)NC(=O)[C@H](C)NC(=O)CSC[C@@H](C(=O)NCCOCCOCCOCCOCCOCCOCCOCCOCCOCCOCCOCCOCCC(N)=O)NC(=O)[C@H](Cc2ccc(O)cc2)N(C)C(=O)[C@H](Cc2ccc(O)cc2)NC(=O)[C@H](CCCNC(=N)N)NC(=O)[C@H](CCCNC(=N)N)NC(=O)[C@H]([C@@H](C)CC)NC1=O` [compound 118] ({CH2CO}-AV[NMeF]VY(Me)NYYIIRRY[NMeY]C[PEG12]-NH2; thioether N-15), for which the Kd fell in the range of 1 to 100 nM.

Take `CC[C@H](C)[C@@H]1NC(=O)[C@H](Cc2ccc(O)cc2)NC(=O)[C@H](Cc2ccc(O)cc2)NC(=O)[C@H](CC(N)=O)NC(=O)[C@H](Cc2ccc(F)cc2)NC(=O)[C@H](C(C)C)NC(=O)[C@H](Cc2ccccc2)N(C)C(=O)[C@H](C(C)C)NC(=O)[C@H](C)NC(=O)CSC[C@@H](C(=O)NCCOCCOCCOCCOCCOCCOCCOCCOCCOCCOCCOCCOCCC(N)=O)NC(=O)[C@H](Cc2ccc(O)cc2)N(C)C(=O)[C@H](Cc2ccc(O)cc2)NC(=O)[C@H](CCCNC(=N)N)NC(=O)[C@H](CCCNC(=N)N)NC(=O)[C@H]([C@@H](C)CC)NC1=O` [compound 119] ({CH2CO}-AV[NMeF]V[Phe(4-F)]NYYIIRRY[NMeY]C[PEG12]-NH2; thioether N-15): the Kd lay within 1 to 100 nM. Take `CC[C@H](C)[C@@H]1NC(=O)[C@H]([C@@H](C)CC)NC(=O)[C@H](Cc2ccc(O)cc2)N(C)C(=O)[C@H](Cc2ccc(O)cc2)NC(=O)[C@H](CC(N)=O)NC(=O)[C@H](Cc2c[nH]c3ccccc23)NC(=O)[C@H](C(C)C)NC(=O)[C@H](Cc2ccccc2)N(C)C(=O)[C@H](C(C)C)NC(=O)[C@H](C)NC(=O)CSC[C@@H](C(=O)NCCOCCOCCOCCOCCOCCOCCOCCOCCOCCOCCOCCOCCC(N)=O)NC(=O)[C@H](Cc2ccc(O)cc2)N(C)C(=O)[C@H](Cc2ccc(O)cc2)NC(=O)[C@H](CCCNC(=N)N)NC(=O)[C@H](CCCNC(=N)N)NC1=O` [compound 120]: the dissociation constant (Kd) was in the range of 1 to 100 nM. In the case of `CC[C@H](C)[C@@H]1NC(=O)[C@H](Cc2ccc(O)cc2)NC(=O)[C@H](Cc2ccc(O)cc2)NC(=O)[C@H](CC(N)=O)NC(=O)[C@H](Cc2c[nH]c3ccccc23)NC(=O)[C@H](C(C)C)NC(=O)[C@H](Cc2ccccc2)N(C)C(=O)[C@H](C(C)C)NC(=O)[C@H](C)NC(=O)CSC[C@@H](C(=O)NCCOCCOCCOCCOCCOCCOCCOCCOCCOCCOCCOCCOCCC(N)=O)NC(=O)[C@H](Cc2ccc(O)cc2)N(C)C(=O)[C@H](Cc2ccc(O)cc2)NC(=O)[C@H](CCCNC(=N)N)NC(=O)[C@H](Cc2ccc(O)cc2)NC(=O)[C@H]([C@@H](C)CC)NC1=O` [compound 121] ({CH2CO}-AV[NMeF]VWNYYIIYRY[NMeY]C[PEG12]-NH2; thioether N-15), the Kd was 1 to 100 nM. Regarding `CC[C@H](C)[C@@H]1NC(=O)[C@H](Cc2ccc(O)cc2)NC(=O)[C@H](Cc2ccc(O)cc2)NC(=O)[C@H](CC(N)=O)NC(=O)[C@H](Cc2cccc(F)c2)NC(=O)[C@H](C(C)C)NC(=O)[C@H](Cc2ccccc2)N(C)C(=O)[C@H](C(C)C)NC(=O)[C@H](C)NC(=O)CSC[C@@H](C(=O)NCCOCCOCCOCCOCCOCCOCCOCCOCCOCCOCCOCCOCCC(N)=O)NC(=O)[C@H](Cc2ccc(O)cc2)N(C)C(=O)[C@H](Cc2ccc(O)cc2)NC(=O)[C@H](CCCNC(=N)N)NC(=O)[C@H](CCCNC(=N)N)NC(=O)[C@H]([C@@H](C)CC)NC1=O` [compound 122], the equilibrium dissociation constant (Kd) was in the range of 1 to 100 nM.
